Activity calls are given as the source filed them. The rule behind the calls is not given here.
Tested on: GENE-TOX genotoxicity assays, various organisms and cells
Experiment: GENE-TOX mutagenicity studies
Conditions: for call: Assay Type: In vivo carcinogenicity studies
[1] = Species/Cell Type: Drosophila melanogaster, Assay Type: Sex-linked recessive lethal gene mutation, Assay Code: SRLT, Evaluation Type: Evaluation A (Pre-1980)
[2] = Species/Cell Type: Escherichia coli polA (W3119 vs P3478), Assay Type: Rec-assay, DNA effects (bacterial DNA repair), Assay Code: RE1T, Evaluation Type: Evaluation A (Pre-1980)
[3] = Species/Cell Type: Nonhuman, Assay Code: CCG+, Evaluation Type: Evaluation A (Pre-1980)
[4] = Species/Cell Type: Nonhuman, Assay Type: Sister-chromatid exchange (SCE) in vivo, Assay Code: SC3+, Evaluation Type: Evaluation B (Post-1980)
[5] = Species/Cell Type: Saccharomyces cerevisiae, Assay Type: Mitotic recombination or gene conversion, Assay Code: YEH-, Evaluation Type: Evaluation A (Pre-1980)
[6] = Species/Cell Type: Salmonella typhimurium (one or more of the five standard strains: TA98, TA100, TA1535, TA1537, and TA1538), Assay Type: Histidine reverse gene mutation, Ames assay, Assay Code: SAL+*, Activation: With metabolic activation, Evaluation Type: Evaluation A (Pre-1980)
[7] = Species/Cell Type: Syrian hamster embryo (SHE) cells, Assay Type: Cell transformation, clonal assay, Assay Code: CTC+, Evaluation Type: Evaluation A (Pre-1980)
[8] = Species/Cell Type: Nonhuman, Assay Code: CCG+L, Evaluation Type: Evaluation A (Pre-1980)
[9] = Species/Cell Type: Neurospora crassa, Assay Type: Reverse gene mutation, Assay Code: NER+, Evaluation Type: Evaluation A (Pre-1980)
[10] = Species/Cell Type: Salmonella typhimurium (one or more of the five standard strains: TA98, TA100, TA1535, TA1537, and TA1538), Assay Type: Histidine reverse gene mutation, Ames assay, Assay Code: SALT, Evaluation Type: Evaluation A (Pre-1980)
[11] = Species/Cell Type: Saccharomyces cerevisiae, Assay Type: Reverse gene mutation, Assay Code: YER+, Evaluation Type: Evaluation A (Pre-1980)
[12] = Species/Cell Type: Mouse, Sex: Male, Assay Type: Sperm morphology, Assay Code: SPI-, Evaluation Type: Evaluation A (Pre-1980)
[13] = Species/Cell Type: Escherichia coli polA (W3110 vs P3478), Assay Type: Rec-assay, DNA effects (bacterial DNA repair), Assay Code: RE2+, Evaluation Type: Evaluation A (Pre-1980)
[14] = Species/Cell Type: Nonhuman, Assay Type: Sister-chromatid exchange (SCE) in vitro, Assay Code: SC2+D, Dose Response: With dose response, Evaluation Type: Evaluation B (Post-1980)
[15] = Species/Cell Type: Salmonella typhimurium (one or more of the five standard strains: TA98, TA100, TA1535, TA1537, and TA1538), Assay Type: Histidine reverse gene mutation, Ames assay, Assay Code: SAL-, Evaluation Type: Evaluation A (Pre-1980)

c1ccc2cc3c(ccc4ccccc43)cc2c1
mutagenic call (Species/Cell Type: Chinese hamster lung (V79) cells, Assay Type: Forward gene mutation at the HPRT or ouabain locus, Assay Code: V79+*, Activation: With metabolic activation, Evaluation Type: Evaluation A (Pre-1980)): active; positive | mutagenic call [1]: no conclusion | mutagenic call [2]: no conclusion | mutagenic call (Species/Cell Type: Fischer rat embryo (RLV/1706) cells, Assay Type: Cell transformation, viral enhanced, Assay Code: CTR+, Evaluation Type: Evaluation A (Pre-1980)): active; positive | mutagenic call (Species/Cell Type: Human diploid fibroblasts, Assay Type: Unscheduled DNA synthesis (UDS) in vitro, DNA effects, Assay Code: UDHT, Evaluation Type: Evaluation A (Pre-1980)): no conclusion | mutagenic call (Species/Cell Type: Mouse (BALB/c-3T3) cells, Assay Type: Cell transformation, Assay Code: CTB-, Evaluation Type: Evaluation A (Pre-1980)): inactive; negative | mutagenic call (Species/Cell Type: Mouse prostate cells, Assay Type: Cell transformation, Assay Code: CTM+, Evaluation Type: Evaluation A (Pre-1980)): active; positive | call [3]: active; positive | mutagenic call (Species/Cell Type: Nonhuman, Assay Type: Sister-chromatid exchange (SCE) in vitro, Assay Code: SC2+, Evaluation Type: Evaluation B (Post-1980)): active; positive | mutagenic call [4]: active; positive | mutagenic call (Species/Cell Type: Nonhuman, Assay Type: Sister-chromatid exchange (SCE) in vivo, Assay Code: SC3T, Evaluation Type: Evaluation A (Pre-1980)): no conclusion | mutagenic call (Species/Cell Type: Rat primary hepatocytes, Assay Type: Unscheduled DNA synthesis (UDS) in vitro, DNA effects, Assay Code: UDP-, Evaluation Type: Evaluation A (Pre-1980)): inactive; negative | mutagenic call [5]: inactive; negative | mutagenic call [6]: active; positive | mutagenic call (Species/Cell Type: Salmonella typhimurium, Assay Type: Forward and reverse gene mutation, host-mediated assay, Assay Code: HMA+, Evaluation Type: Evaluation A (Pre-1980)): active; positive | mutagenic call [7]: active; positive

ClC1=C(Cl)C2(Cl)C3C(Cl)C=CC3C1(Cl)C2(Cl)Cl (stereo not given)
mutagenic call [1]: no conclusion | call [8]: active; positive | mutagenic call (Species/Cell Type: Zea mays (corn), Assay Type: Gene mutation, Assay Code: ZEM+, Evaluation Type: Evaluation A (Pre-1980)): active; positive

CCCCCC(=O)C(CCCC)c1oc(=O)c(CCCC)c(O)c1CCCC (stereo not given)
mutagenic call (Species/Cell Type: Human lymphocytes, Assay Type: Sister-chromatid exchange (SCE) in vitro, Assay Code: SCLT, Evaluation Type: Evaluation B (Post-1980)): no conclusion | mutagenic call (Species/Cell Type: Human, Assay Type: Sister-chromatid exchange (SCE) in vitro, Assay Code: SC1T, Evaluation Type: Evaluation B (Post-1980)): no conclusion

CC(C)(C)OOCO
mutagenic call [9]: active; positive

c1cc2ccc3ccc4c5c(c6c(c1CCC6)c2c35)CCC4
mutagenic call [10]: no conclusion

COc1ccc2c3c(n(CC=C(C)C)c2c1)[C@H](C=C(C)C)N1C(=O)[C@@H]2CCCN2C(=O)[C@]1(O)[C@H]3O
mutagenic call [10]: no conclusion

CC(=O)OC1C2OC2C2=CC(O)C3(CC2(C)C1C)OC3(C)CO (stereo not given)
mutagenic call (Species/Cell Type: Saccharomyces cerevisiae, Assay Type: Mitotic recombination or gene conversion, Assay Code: YEC-, Evaluation Type: Evaluation A (Pre-1980)): inactive; negative

OCC(O)CCl (stereo not given)
mutagenic call (Species/Cell Type: Rat, Sex: Male, Assay Type: Sperm morphology, Assay Code: SPAT, Evaluation Type: Evaluation A (Pre-1980)): no conclusion | mutagenic call (Species/Cell Type: Rodents, Sex: Male, Assay Type: Dominant lethal test, Assay Code: DLT-, Evaluation Type: Evaluation A (Pre-1980)): inactive; negative

CC1C(=O)OC2CC[N+]3([O-])CC=C(COC(=O)C(C)(O)C1(C)O)C23 (stereo not given)
mutagenic call (Species/Cell Type: Drosophila melanogaster, Assay Type: Sex-linked recessive lethal gene mutation, Assay Code: SRL+, Evaluation Type: Evaluation A (Pre-1980)): active; positive

Nc1ccc(Sc2ccc(N)cc2)cc1
call [3]: active; positive

C=[N+]=[N-]
mutagenic call [9]: active; positive | call [8]: active; positive | mutagenic call [11]: active; positive

Nc1ccc(Br)cc1
mutagenic call [12]: inactive; negative | mutagenic call (Species/Cell Type: Nonhuman, Assay Type: Sister-chromatid exchange (SCE) in vivo, Assay Code: SC3T, Evaluation Type: Evaluation B (Post-1980)): no conclusion

Cc1cc2ccccc2cn1
mutagenic call [10]: no conclusion

Cc1cc(N=Nc2ccccc2C)ccc1N
mutagenic call [13]: active; positive | mutagenic call [2]: no conclusion | mutagenic call (Species/Cell Type: Neurospora crassa, Assay Type: Forward gene mutation, Assay Code: NEF+, Evaluation Type: Evaluation A (Pre-1980)): active; positive | call [3]: active; positive | mutagenic call [14]: active; positive | mutagenic call (Species/Cell Type: Nonhuman, Assay Type: Sister-chromatid exchange (SCE) in vitro, Assay Code: SC2T, Evaluation Type: Evaluation A (Pre-1980)): no conclusion | mutagenic call [4]: active; positive | mutagenic call [5]: inactive; negative | mutagenic call [6]: active; positive | mutagenic call [10]: no conclusion | mutagenic call (Species/Cell Type: Salmonella typhimurium, Assay Type: Forward and reverse gene mutation, host-mediated assay, Assay Code: HMA-, Evaluation Type: Evaluation A (Pre-1980)): inactive; negative | mutagenic call [7]: active; positive

CCc1cc2c(c3ccc4ccccc4c13)CCC2=O
mutagenic call [6]: active; positive

CCC(=O)Oc1ccc2c(c1)CC[C@@H]1[C@@H]2CC[C@]2(C)[C@@H](OC(=O)CC)CC[C@@H]12
mutagenic call (Species/Cell Type: Rat, Sex: Male, Assay Type: Sperm morphology, Assay Code: SPA+, Evaluation Type: Evaluation A (Pre-1980)): active; positive

CC(=O)OCC1=C(C(=O)O)N2C(=O)[C@@H](NC(=O)Cc3cccs3)[C@H]2SC1
mutagenic call (Species/Cell Type: Escherichia coli polA (W3119 vs P3478), Assay Type: Rec-assay, DNA effects (bacterial DNA repair), Assay Code: RE1-, Evaluation Type: Evaluation A (Pre-1980)): inactive; negative

O=S1(=O)OC2(c3ccc(O)cc3Oc3cc(O)ccc32)c2ccccc21
mutagenic call [10]: no conclusion

O=CCCCC=O
mutagenic call (Species/Cell Type: Chinese hamster ovary (CHO) cells, Assay Type: Forward gene mutation at the HPRT locus, Assay Code: CHO-, Evaluation Type: Evaluation B (Post-1980)): inactive; negative | mutagenic call [14]: active; positive

CN(CC(=O)OC[C@H](N)C(=O)O)N=O
mutagenic call [13]: active; positive | mutagenic call [2]: no conclusion

ClC(Cl)(Cl)Cl
mutagenic call [12]: inactive; negative | call [3]: active; positive | mutagenic call (Species/Cell Type: Saccharomyces cerevisiae, Assay Type: Mitotic recombination or gene conversion, Assay Code: YEC+, Evaluation Type: Evaluation A (Pre-1980)): active; positive | mutagenic call (Species/Cell Type: Saccharomyces cerevisiae, Assay Type: Mitotic recombination or gene conversion, Assay Code: YEH+, Evaluation Type: Evaluation A (Pre-1980)): active; positive | mutagenic call [11]: active; positive | mutagenic call [15]: inactive; negative

Cc1cccc2c1ccc1c3ccccc3ccc21
mutagenic call [6]: active; positive

O=P(O)(O)O
mutagenic call (Species/Cell Type: Syrian hamster embryo (SA7/SHE) cells, Assay Type: Cell transformation, viral enhanced, Assay Code: CT7-, Evaluation Type: Evaluation A (Pre-1980)): inactive; negative

Nc1nc(N)c2cc(S(=O)(=O)c3ccc4ccccc4c3)ccc2n1
mutagenic call [10]: no conclusion

CC(=O)ON(C(C)=O)c1ccc(/C=C\c2ccccc2)cc1
mutagenic call (Species/Cell Type: Human diploid fibroblasts, Assay Type: Unscheduled DNA synthesis (UDS) in vitro, DNA effects, Assay Code: UDH+, Evaluation Type: Evaluation A (Pre-1980)): active; positive | call [8]: active; positive

c1ccc2c(c1)cc1ccc3cccc4c5ccccc5c2c1c34
call [3]: active; positive

CCN(CC)Cc1cc(Br)ccc1OCC(=O)N/N=C/c1ccc(O)c(OC)c1
mutagenic call (Species/Cell Type: Saccharomyces cerevisiae, Assay Type: Reverse gene mutation, Assay Code: YERT, Evaluation Type: Evaluation A (Pre-1980)): no conclusion

C[C@]12CC[C@H]3[C@@H](CCC4=CC(=O)CC[C@@]43C)[C@@H]1CC[C@@H]2O
mutagenic call (Species/Cell Type: Human, Sex: Male, Assay Type: Sperm morphology, Assay Code: SPH+, Evaluation Type: Evaluation A (Pre-1980)): active; positive | mutagenic call [12]: inactive; negative | call [3]: active; positive

F/C(=C(/F)C(F)(F)F)C(F)(F)F
mutagenic call [1]: no conclusion

O=c1[nH]c(=O)c2[nH]cnc2[nH]1
mutagenic call [1]: no conclusion

O=C(O)c1ccccc1O
mutagenic call [11]: active; positive | mutagenic call [15]: inactive; negative
